According to patent US20160206577A1, “NOVEL DRUG FORMULATION” (FAB PHARMA SAS, priority 2013, published 2016):

Experiments:
[1] = commercial intravenous formulations; cited from earlier work
[2] = test system: methicillin-resistant Staphylococcus aureus (MRSA 300); experiment: Systemic mouse infection model against MRSA; type: in vivo; details: CD-1 mice, combined n=3 studies
Protocol: (§1) The aim of this study was to compare the in vivo efficacy of the prior art historical formulation with a novel nanosuspension of the present invention using a murine systemic infection model against both a susceptible (MSSA) and a methicillin resistant (MRSA) strains of S. aureus.
(§2) Three independent studies were run against each isolate (one MSSA and one MRSA), the data for the three studies combined and analysis performed. Bacterial isolates were grown to log phase in a liquid culture. Bacteria were diluted in 8% mucin to a concentration to achieve at least 90% mortality within 48 hours after infection. Six CD-1 female mice, 18-20 grams, were allocated per compound (I) concentration and were infected with 0.5 ml of bacterial suspension via intraperitoneal injection. Five minutes post-infection, mice were treated via intravenous administration. A nanosuspension of the invention (prepared according to Example 3) was prepared fresh just prior to single IV dose delivery at 50, 100 and 200 mg/kg (dosage of compound (I)). The prior art historical formulation of compound (I) (formulated at 10 mg/mL in 20% HPBCD, and 1% glucose) and vancomycin (Sigma Aldrich) were also administered IV at one dose and were used as comparators. Infection control mice were dosed with saline. Survival was assessed for 48 hours post infection. Date of death was recorded and a Probit analysis was performed to determine the PD50 (50% protective dose).

[3] = test system: methicillin-susceptible Staphylococcus aureus (MSSA); experiment: Systemic mouse infection model against MSSA; type: in vivo; details: CD-1 mice, combined n=3 studies
Protocol: as §1, §2

[4] = test system: MSSA and MRSA infections; details: murine model; cited from earlier work
[5] = Particle size of suspensions made with concentrated aqueous PVP (solvent evaporation attempts); type: physicochemical; details: low molecular weight PVP (3,500 Da), concentrated aqueous polymer solution
From the text: Alternative solvent evaporation systems such as oil-in-oil and water-in-oil systems were investigated, however large particle sizes were still observed. In an attempt to reduce solvent dissolution into the continuous phase of the oil-in-water system, the aqueous phase was saturated with different salts to reduce solvent solubility. However, little benefit was achieved through the use of the saturated salt systems, as large crystals were still observed. It was thought that the use of a concentrated aqueous polymer solution would disrupt or prevent crystal formation. Multiple molecular weights and concentrations of PVP were studied. […] In the expectation of further reducing the particle size (to <1 μm i.e. to nanoparticulate form) further surfactants were added. However, by contrast, the addition of further surfactants to the solution yielded large size growth of particles.

[6] = test system: Staphylococcus aureus MSSA, MRSA, VISA and VRSA strains; details: pathogenic MSSA; cited from earlier work
[7] = cited from earlier work
[8] = single IV dose 50 mg/kg, 48 h post infection
[9] = single IV dose, Probit analysis

Question: Which “Maximum reported safe daily dose” value [1] does the source give for `CC(O)COC[C@H]1O[C@@H]2O[C@H]3[C@H](O)[C@@H](O)[C@@H](O[C@H]4[C@H](O)[C@@H](O)[C@@H](O[C@H]5[C@H](O)[C@@H](O)[C@@H](O[C@H]6[C@H](O)[C@@H](O)[C@@H](O[C@H]7[C@H](O)[C@@H](O)[C@@H](O[C@H]8[C@H](O)[C@@H](O)[C@@H](O[C@H]1[C@H](O)[C@H]2O)O[C@@H]8COCC(C)O)O[C@@H]7COCC(C)O)O[C@@H]6COCC(C)O)O[C@@H]5COCC(C)O)O[C@@H]4COCC(C)O)O[C@@H]3COCC(C)O` (stereo partly drawn) [HPBCD, hydroxypropyl-beta-cyclodextrin] here?
Answer: 16 g/day

Question: For `CN[C@H](CC(C)C)C(=O)N[C@H]1C(=O)N[C@@H](CC(N)=O)C(=O)N[C@H]2C(=O)N[C@H]3C(=O)N[C@H](C(=O)N[C@H](C(=O)O)c4cc(O)cc(O)c4-c4cc3ccc4O)[C@H](O)c3ccc(c(Cl)c3)Oc3cc2cc(c3O[C@@H]2O[C@H](CO)[C@@H](O)[C@H](O)[C@H]2O[C@H]2C[C@](C)(N)[C@H](O)[C@H](C)O2)Oc2ccc(cc2Cl)[C@H]1O` [Vancomycin, vancomycin], which “% survival” value [2, 8] is on record?
Answer: 100%

Question: What about the Survival [2, 8] of the same compound?
Answer: 18/18

Question: What about the “PD50 (95% C.I.)” value [2, 9] of the same compound?
Answer: <50 mg/kg

Question: And the “% survival” value [3, 8]?
Answer: 100%

Question: And the Survival [3, 8]?
Answer: 18/18

Question: What about the “PD50 (50% protective dose)” value [3, 9] of the same compound?
Answer: <50 mg/kg

Question: For `CCc1cc(O)c(Oc2ccc(C(N)=O)cc2F)cc1F` [compound (I), 4-(4-ethyl-5-fluoro-2-hydroxyphenoxy)-3-fluorobenzamide], which In vivo activity [4] is on record?
Answer: active in vivo

Question: And the “Particle size of suspension” value [5]?
Answer: 4.4 μm

Question: What about the In vitro activity [6] of the same compound?
Answer: highly active

Question: What about the Water-solubility [7] of the same compound?
Answer: relatively poor

Question: And the “Concentration at which compound (I) may be formulated” value ([7]; prior art historical formulation (water, glucose monohydrate, HPBCD))?
Answer: up to 11.3 mg/mL
